Molecular target: GLP-1 Receptor (Homo sapiens, UniProt P43220)
Test: GLP-1R agonist cAMP stimulation assay (HEK293/GLP1R/CRE-LUC cells, Cisbio cAMP dynamic 2 kit)
Assay type: cell-based
Settings: Table 3, HEK293/GLP1R/CRE-LUC cells, 30 min
Procedure: Activation of GLP-1 receptor is known to stimulate cyclic AMP (cAMP) production in cells which indicates primary coupling to the G as subunit of the G protein heterotrimeric complex.
To optimize functional activity directed toward G as coupling, a HEK293/CRE-Luc cell line developed by HDB stably expressing the GLP-1 Receptor was used. 200× concentration of compound working solutions were prepared (Agilent Technologies Bravo) with ½ log serial dilution in 384-well Echo LDV plate (Labcyte, CatOLP-0200). 50 nL/well 200× concentration of compound working solutions were moved to 384-well white low volume plate (Greiner, Cat4784075) using Labcyte ECH0550.1×10^5 cells/mL HEK293/GLP1R/CRE-LUC (HD Biosciences) cell suspensions prepared with assay buffer (DPBS containing 0.5 mM IBMX (Sigma, Cat15879) and 0.10 BSA (GENVIEW, Cat4FA016-100g)), 10 uL cell suspensions were added to each well of previous generated assay plate which already contains 50 n^1 compound at 200 xconcentration using ThermioFisher Multidrop Combi (1000 cells/well). Seal the plate and incubate at 37 with […] for 30 m.
After incubation the cAMP assay signal was generated using cAMP dynamic 2 Kit (Cisbio). 5 μL cAMP-d2 working solution was added to each well, followed with 5 L Anti-cAMP antibody-cryptate working solution added to each well using ThermoFisher Multidrop Combi. Incubate at room temperature for 1 hour protected from light. Read the fluorescence at 665 and 615 nm with Reader PerkinElmer EnVision. % oActivity=100%×(mean RLU of test sample−mean RLU of vehicle control)/(mean RLU of MAX control−mean RLU of vehicle control)

Chain of GLP-1 Receptor (P43220 24-463, species assumed): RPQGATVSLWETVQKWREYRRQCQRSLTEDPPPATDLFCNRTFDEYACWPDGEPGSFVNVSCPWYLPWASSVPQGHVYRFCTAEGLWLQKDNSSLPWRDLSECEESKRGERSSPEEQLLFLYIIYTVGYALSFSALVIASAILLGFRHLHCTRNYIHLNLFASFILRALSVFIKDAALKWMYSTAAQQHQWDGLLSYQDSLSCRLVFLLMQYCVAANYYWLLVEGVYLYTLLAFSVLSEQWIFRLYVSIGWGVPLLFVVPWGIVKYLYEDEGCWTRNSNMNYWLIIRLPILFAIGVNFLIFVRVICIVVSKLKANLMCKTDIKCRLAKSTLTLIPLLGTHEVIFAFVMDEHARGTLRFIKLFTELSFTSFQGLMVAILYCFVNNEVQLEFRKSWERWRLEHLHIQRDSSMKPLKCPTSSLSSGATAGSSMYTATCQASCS

`CCS(=O)(=NC)c1ccc(-n2ccn(-c3c4c(nn3-c3cc(C)c(F)c(C)c3)CCN(C(=O)c3cc5cc(C6CCOCC6)ccc5n3C[C@H]3CCO3)[C@H]4C)c2=O)cc1` (single isomer, unassigned) [Compound 165] gave an EC50 of 9.9 nM.

In the case of `Cc1cc(-n2nc3c(c2-n2ccn(-c4ccc(S(=N)(=O)C5CC5)cc4)c2=O)[C@H](C)N(C(=O)c2cc4cc(C5CCOCC5)ccc4n2[C@@]2(c4noc(=O)[nH]4)C[C@@H]2C)CC3)cc(C)c1F` (single isomer, unassigned) [Compound 134], the EC50 is reported as 0.0051 nM.

Compound `Cc1cc(-n2nc3c(c2-n2ccn(-c4ccc(S(C)(=N)=O)cc4)c2=O)[C@H](C)N(C(=O)c2cc4cc(C5CCOCC5)ccc4n2[C@@]2(c4noc(=O)[nH]4)C[C@@H]2C)CC3)cc(C)c1F` (single isomer, unassigned) [Compound 115] has an EC50 of 0.049 nM.

Work on `CN=S1(=O)CCC(Oc2ccc(-n3ccn(-c4c5c(nn4-c4cc(C)c(F)c(C)c4)CCN(C(=O)c4cc6cc(C7CCOCC7)ccc6n4[C@@]4(c6noc(=O)[nH]6)C[C@@H]4C)[C@H]5C)c3=O)c(F)c2C)CC1` (single isomer, unassigned) [Compound 233] yielded an EC50 of 0.028 nM.

`Cc1cc(-n2nc3c(c2-n2ccn(-c4ccc(S5(=O)=NCCC5)cc4)c2=O)[C@H](C)N(C(=O)c2cc4cc(C5CCOCC5)ccc4n2C2(c4nnn[nH]4)CC2)CC3)cc(C)c1F` (single isomer, unassigned) [Compound 172] was tested, and the EC50 was 0.037 nM.

With `Cc1cc(-n2nc3c(c2-n2ccn(-c4ccc5c(c4F)CCN=S5(=O)C4CC4)c2=O)[C@H](C)N(C(=O)c2cc4cc([C@H]5CCOC(C)(C)C5)ccc4n2[C@@]2(c4noc(=O)[nH]4)C[C@@H]2C)CC3)cc(C)c1F` (single isomer, unassigned) [Compound 197] the EC50 was 0.018 nM.

In the case of `CN=S1(=O)CCC(Oc2ccc(-n3ccn(-c4c5c(nn4-c4cc(C)c(F)c(C)c4)CCN(C(=O)c4cc6cc(C7CCOCC7)ccc6n4[C@@]4(c6noc(=O)[nH]6)C[C@@H]4C)[C@H]5C)c3=O)cc2C(F)F)CC1` (single isomer, unassigned) [Compound 235], the EC50 is reported as 0.057 nM.

For `Cc1cc(-n2nc3c(c2-n2ccn(-c4ccc(CS(C)(=N)=O)cc4F)c2=O)[C@H](C)N(C(=O)c2cc4cc(C5CCOCC5)ccc4n2[C@@]2(c4noc(=O)[nH]4)C[C@@H]2C)CC3)cc(C)c1F` (single isomer, unassigned) [Compound 174], the EC50 was 0.067 nM.

Work on `CCS(=N)(=O)c1ccc(-n2ccn(-c3c4c(nn3-c3cc(C)c(F)c(C)c3)CCN(C(=O)c3cc5cc(C6CCOCC6)ccc5n3[C@@]3(c5noc(=O)[nH]5)C[C@@H]3C)[C@H]4C)c2=O)cc1` (single isomer, unassigned) [Compound 116] yielded an EC50 of 0.049 nM.

Compound `CN=S(C)(=O)c1ccc(-n2ccn(-c3c4c(nn3-c3cc(C)c(F)c(C)c3)CCN(C(=O)c3cc5cc(C6CCOCC6)ccc5n3[C@@]3(c5noc(=O)[nH]5)C[C@@H]3C)[C@H]4C)c2=O)cc1` (single isomer, unassigned) [Compound 112] has an EC50 of 0.057 nM.

`CC1=Cc2c(ccc(-n3ccn(-c4c5c(nn4-c4cc(C)c(F)c(C)c4)CCN(C(=O)c4cc6cc([C@H]7CCOC(C)(C)C7)ccc6n4[C@@]4(c6noc(=O)[nH]6)C[C@@H]4C)[C@H]5C)c3=O)c2F)S(=O)(C2CC2)=N1` (single isomer, unassigned) [Compound 211] was tested, and the EC50 was 0.041 nM.

`CN=S1(=O)CCC(Oc2ccc(-n3ccn(-c4c5c(nn4-c4cc(C)c(F)c(C)c4)CCN(C(=O)c4cc6cc([C@H]7CCOC(C)(C)C7)ccc6n4[C@@]4(c6noc(=O)[nH]6)C[C@@H]4C)[C@H]5C)c3=O)cc2C2CC2)CC1` (some centres unmarked) [Compound 237] was tested, and the EC50 was 0.07 nM.

`Cc1cc(-n2nc3c(c2-n2ccn(-c4ccc(S(=N)(=O)C5CCC5)cc4F)c2=O)[C@H](C)N(C(=O)c2cc4cc(C5CCOCC5)ccc4n2[C@@]2(c4noc(=O)[nH]4)C[C@@H]2C)CC3)cc(C)c1F` (single isomer, unassigned) [Compound 169] showed an EC50 of 0.07 nM.

`Cc1cc(-n2nc3c(c2-n2ccn(-c4ccc(CS(C)(=N)=O)cc4F)c2=O)[C@H](C)N(C(=O)c2cc4cc(C5CCOCC5)ccc4n2[C@@]2(c4noc(=O)[nH]4)C[C@@H]2C)CC3)cc(C)c1F` (single isomer, unassigned) [Compound 175] gave an EC50 of 0.025 nM.

Work on `CCS(=N)(=O)c1ccc(-n2ccn(-c3c4c(nn3-c3cc(C)c(F)c(C)c3)CCN(C(=O)c3cc5cc(C6CCOCC6)ccc5n3[C@@]3(c5noc(=O)[nH]5)C[C@@H]3C)[C@H]4C)c2=O)c(Cl)c1` (single isomer, unassigned) [Compound 137] yielded an EC50 of 0.15 nM.

In the case of `CN=S(=O)(c1ccc(-n2ccn(-c3c4c(nn3-c3cc(C)c(F)c(C)c3)CCN(C(=O)c3cc5cc([C@H]6CCOC(C)(C)C6)ccc5n3[C@@]3(c5noc(=O)[nH]5)C[C@@H]3C)[C@H]4C)c2=O)c(F)c1C)C1CC1` (single isomer, unassigned) [Compound 196], the EC50 is reported as 0.039 nM.

`COc1cc(-n2ccn(-c3c4c(nn3-c3cc(C)c(F)c(C)c3)CCN(C(=O)c3cc5cc(C6CCOCC6)ccc5n3[C@@]3(c5noc(=O)[nH]5)C[C@@H]3C)[C@H]4C)c2=O)ccc1S(C)(=N)=O` (stereo partly drawn) [Compound 123, 3-[(1S,2S)-1-(2-{[(S)-2-(4-fluoro-3,5-xylyl)-3-{3-[4-(iminomethyloxothio)-3-methoxyphenyl]-2-oxo-1,3-dihydro-1-imidazolyl}-4-methyl-4,5,6,7-tetrahydro-2H-1,2,5-triazainden-5-yl]carbonyl}-5-(tetrahydro-2H-pyran-4-yl)-1-indolyl)-2-methylcyclopropyl]-1,2,4-oxadiazol-5(4H)-one] showed an EC50 of 0.071 nM.

In the case of `Cc1cc(-n2ccn(-c3c4c(nn3-c3cc(C)c(F)c(C)c3)CCN(C(=O)c3cc5cc([C@H]6CCOC(C)(C)C6)ccc5n3[C@@]3(c5noc(=O)[nH]5)C[C@@H]3C)[C@H]4C)c2=O)c(F)cc1S(=N)(=O)C1CC1` (single isomer, unassigned) [Compound 189], the EC50 is reported as 0.047 nM.

With `CCS(=N)(=O)c1ccc(-n2ccn(-c3c4c(nn3-c3cc(C)c(F)c(C)c3)CCN(C(=O)c3sc5cc(C6CCOCC6)ccc5c3C3(c5noc(=O)[nH]5)CC3)[C@H]4C)c2=O)cc1` (single isomer, unassigned) [Compound 132] the EC50 was 0.98 nM.

`Cc1cc(-n2nc3c(c2-n2ccn(-c4ccc(S(=N)(=O)CC5CC5)cc4F)c2=O)[C@H](C)N(C(=O)c2cc4cc(C5CCOCC5)ccc4n2[C@@]2(c4noc(=O)[nH]4)C[C@@H]2C)CC3)cc(C)c1F` (single isomer, unassigned) [Compound 178] gave an EC50 of 0.094 nM.

In the case of `Cc1nnc(C2(n3c(C(=O)N4CCc5nn(-c6cc(C)c(F)c(C)c6)c(-n6ccn(-c7ccc(S8(=O)=NCCC8)cc7)c6=O)c5[C@@H]4C)cc4cc(C5CCOCC5)ccc43)CC2)o1` (single isomer, unassigned) [Compound 155], the EC50 is reported as 0.99 nM.

`Cc1cc(-n2nc3c(c2-n2ccn(-c4ccc(CS(C)(=N)=O)cc4)c2=O)[C@H](C)N(C(=O)c2cc4cc(C5CCOCC5)ccc4n2[C@@]2(c4noc(=O)[nH]4)C[C@@H]2C)CC3)cc(C)c1F` (stereo partly drawn) [Compound 111, 3-[(1S,2S)-1-(2-{[(4S)-3-[3-(4-{[azanylidene(methyl)(oxo)-λ^6-sulfanyl]methyl}phenyl)-2-oxoimidazol-1-yl]-2-(4-fluoro-3,5-dimethylphenyl)-4-methyl-4,5,6,7-tetrahydropyrazolo[4,3-c]pyridin-5-yl]carbonyl}-5-(3,4,5,6-tetrahydro-2H-pyran-4-yl)indol-1-yl)-2-methylcyclopropyl]-4H,5H-1,2,4-oxadiazol-5-one] showed an EC50 of 0.014 nM.

`CNc1cc(-n2ccn(-c3c4c(nn3-c3cc(C)c(F)c(C)c3)CCN(C(=O)c3cc5cc(C6CCOCC6)ccc5n3[C@@]3(c5nc(=O)o[nH]5)C[C@@H]3C)[C@H]4C)c2=O)ccc1S(C)(=N)=O` (stereo partly drawn) [Compound 105, 3-[(1S,2S)-1-(2-{[(S)-2-(4-fluoro-3,5-xylyl)-3-{3-[4-(iminomethyloxothio)-3-(methylamino)phenyl]-2-oxo-1,3-dihydro-1-imidazolyl}-4-methyl-4,5,6,7-tetrahydro-2H-1,2,5-triazainden-5-yl]carbonyl}-5-(tetrahydro-2H-pyran-4-yl)-1-indolyl)-2-methylcyclopropyl]-1,2,4-oxadiazol-5(4H)-one] showed an EC50 of 0.009 nM.

Work on `Cc1cc(-n2nc3c(c2-n2ccn(-c4ccc5c(c4)C=CS(C)(=O)=N5)c2=O)[C@H](C)N(C(=O)c2cc4cc([C@H]5CCOC(C)(C)C5)ccc4n2[C@@]2(c4noc(=O)[nH]4)C[C@@H]2C)CC3)cc(C)c1F` (single isomer, unassigned) [Compound 231] yielded an EC50 of 0.014 nM.

For `Cc1cc(-n2nc3c(c2-n2ccn(-c4cc5c(cc4F)S(C)(=O)=NC5)c2=O)[C@H](C)N(C(=O)c2cc4cc([C@H]5CCOC(C)(C)C5)ccc4n2[C@@]2(c4noc(=O)[nH]4)C[C@@H]2C)CC3)cc(C)c1F` (single isomer, unassigned) [Compound 200], the EC50 was 0.01 nM.

`Cc1cc(-n2nc3c(c2-n2ccn(-c4ccc5c(c4F)CCN=S5(C)=O)c2=O)[C@H](C)N(C(=O)c2cc4cc([C@H]5CCOC(C)(C)C5)ccc4n2[C@@]2(c4noc(=O)[nH]4)C[C@@H]2C)CC3)cc(C)c1F` (single isomer, unassigned) [Compound 186] was tested, and the EC50 was 0.0047 nM.

Reference: patent publication US12291529B2, “Heterocyclic GLP-1 agonists” (Gasherbrum Bio, Inc., priority 2023, dated 2025)
